Assay results as given in PubChem BioAssay (NCI).
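Compound exposure: 48 hours, 5 concentrations, 96-well plates. Here, GI50 denotes the concentration required for 50% inhibition of growth. TGI denotes the concentration required for complete inhibition of growth.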

Key:
Assay in all cases: DTP human tumour cell line panel, 48 h; in the data active means GI50 below about 0.43 µM; inactive means the rest
[1] = test system: LOX IMVI melanoma
[2] = test system: IGROV1 ovarian
[3] = test system: SF-539 CNS
[4] = test system: HOP-62 NSCLC
[5] = test system: SN12C renal
[6] = test system: UACC-257 melanoma
[7] = test system: OVCAR-4 ovarian
[8] = test system: UO-31 renal
[9] = test system: A549 NSCLC
[10] = test system: SR leukemia
[11] = test system: RXF 393 renal
[12] = test system: SK-MEL-5 melanoma
[13] = test system: SNB-75 CNS
[14] = test system: SNB-19 CNS
[15] = test system: EKVX NSCLC
[16] = test system: SK-OV-3 ovarian
[17] = test system: HCT-15 colon
[18] = test system: SF-295 CNS
[19] = test system: NCI-H460 lung
[20] = test system: MDA-MB-231 breast
[21] = test system: NCI/ADR-RES ovarian
[22] = test system: MALME-3M melanoma
[23] = test system: NCI-H23 lung
[24] = test system: SF-268 CNS
[25] = test system: NCI-H226 lung
[26] = test system: HOP-92 NSCLC
[27] = test system: HCT-116 colon
[28] = test system: ACHN renal
[29] = test system: K-562 leukemia
[30] = test system: PC-3 prostate
[31] = test system: COLO 205 colon
[32] = test system: RPMI-8226 leukemia
[33] = test system: KM12 colon
[34] = test system: DU-145 prostate
[35] = test system: UACC-62 melanoma
[36] = test system: HCC-2998 colon
[37] = test system: OVCAR-5 ovarian
[38] = test system: M14 melanoma
[39] = test system: MDA-MB-435
[40] = test system: SK-MEL-28 melanoma
[41] = test system: CCRF-CEM leukemia
[42] = test system: CAKI-1 renal
[43] = test system: 786-0 renal
[44] = test system: HL-60(TB) leukemia
[45] = test system: MCF7 breast
[46] = test system: OVCAR-3 ovarian
[47] = test system: HS 578T breast
[48] = test system: OVCAR-8 ovarian
[49] = test system: T-47D breast
[50] = test system: A498 renal
[51] = test system: U251 CNS
[52] = test system: MOLT-4 leukemia
[53] = test system: SW-620 colon
[54] = test system: NCI-H522 lung
[55] = test system: BT-549 breast
[56] = test system: SK-MEL-2 melanoma
[57] = test system: TK-10 renal
[58] = test system: HT29 colon

O=C1OC(c2ccccc2)(c2cc(Br)c(O)c(Br)c2)c2ccccc21 (centres undefined)
30.7 µM: TGI [12]
72 µM: TGI [13]
36.4 µM: TGI [11] | TGI [46]
29.1 µM: TGI [27]
67.8 µM: TGI [44]
57.3 µM: TGI [47]
33 µM: TGI [1]
43.5 µM: TGI [4]
31.7 µM: TGI [35]
86.1 µM: TGI [20]
59.1 µM: TGI [18] | TGI [23]
36.8 µM: TGI [38]
78.9 µM: TGI [7]
77.5 µM: TGI [22]
76.2 µM: TGI [17]
78.7 µM: TGI [45]
60.5 µM: TGI [33]
38 µM: TGI [51]
84.4 µM: TGI [25]
78.5 µM: TGI [32]
80.6 µM: TGI [3]
52 µM: TGI [50]
> 100 µM: TGI [2] | TGI [5] | TGI [6] | TGI [9] | TGI [10] | TGI [14] | TGI [15] | TGI [24] | TGI [28] | TGI [29] | TGI [30] | TGI [34] | TGI [37] | TGI [41] | TGI [42] | TGI [48] | TGI [49] | TGI [52] | TGI [53]
84.3 µM: TGI [21]
inactive: GI50 [1] 16.3 µM | GI50 [2] 33.6 µM | GI50 [3] 26.6 µM | GI50 [4] 17.9 µM | GI50 [5] 50 µM | GI50 [6] 35.4 µM | GI50 [7] 22.7 µM | GI50 [8] 15.6 µM | GI50 [9] 31.3 µM | GI50 [10] 26 µM | GI50 [11] 18.6 µM | GI50 [12] 14.5 µM | GI50 [13] 20.3 µM | GI50 [14] 29.7 µM | GI50 [15] 31.7 µM | GI50 [16] 21.4 µM | GI50 [17] 25.8 µM | GI50 [18] 17.5 µM | GI50 [19] 19.6 µM | GI50 [20] 25.9 µM | GI50 [21] 26 µM | GI50 [22] 25.3 µM | GI50 [23] 21.3 µM | GI50 [24] 28.8 µM | GI50 [25] 26.2 µM | GI50 [26] 16.6 µM | GI50 [27] 15.6 µM | GI50 [28] 34.5 µM | GI50 [29] 32.5 µM | GI50 [30] 35.6 µM | GI50 [31] 18.2 µM | GI50 [32] 28.7 µM | GI50 [33] 21.9 µM | GI50 [34] 27.4 µM | GI50 [35] 15.6 µM | GI50 [36] 19.9 µM | GI50 [37] 31.8 µM | GI50 [38] 18.6 µM | GI50 [39] 22.6 µM | GI50 [40] 21.1 µM | GI50 [41] 38.3 µM | GI50 [42] 29.2 µM | GI50 [43] 19.3 µM | GI50 [44] 22.8 µM | GI50 [45] 23.8 µM | GI50 [46] 18.1 µM | GI50 [47] 18.5 µM | GI50 [48] 29.3 µM | GI50 [49] 26.8 µM | GI50 [50] 21.1 µM | GI50 [51] 16.9 µM | GI50 [52] 30.4 µM | GI50 [53] 27 µM
38.7 µM: TGI [43]
40.5 µM: TGI [26]
49.2 µM: TGI [40]
37.8 µM: TGI [36]
39.4 µM: TGI [31]
43.9 µM: TGI [19]
42.3 µM: TGI [8]
77.1 µM: TGI [39]
53.7 µM: TGI [16]

N#Cc1nc(C(CO)N(Cc2ccccc2)C(=O)O)oc1N (centres undefined)
> 100 µM: TGI [1] | TGI [2] | TGI [3] | TGI [4] | TGI [5] | TGI [6] | TGI [7] | TGI [8] | TGI [9] | TGI [54] | TGI [10] | TGI [11] | TGI [12] | TGI [13] | TGI [15] | TGI [16] | TGI [17] | TGI [18] | TGI [19] | TGI [20] | TGI [21] | TGI [23] | TGI [24] | TGI [25] | TGI [26] | TGI [27] | TGI [28] | TGI [29] | TGI [30] | TGI [31] | TGI [32] | TGI [33] | TGI [34] | TGI [55] | TGI [35] | TGI [36] | TGI [37] | TGI [56] | TGI [38] | TGI [57] | TGI [39] | TGI [40] | TGI [42] | TGI [43] | TGI [44] | TGI [45] | TGI [46] | TGI [48] | TGI [49] | TGI [58] | TGI [50] | TGI [51] | TGI [52]
